pIC50: −log10 of the molar value. Counter-ions that a name gives are not always drawn.

Usually pIC50 stands for the IC50 on a negative log10 scale, so that one unit is a factor of ten. The AC50 is the midpoint of the concentration-response curve, whichever way the signal moves. Read a high AC50 as activity only at high concentration.

For assay [1], the system named is HTT mRNA. Put plainly: Splicing RT-qPCR assay, HTT canonical (CJ) and alternative (AJ) junction mRNA. In kind it is cell-based. Particulars: Homo sapiens, A673 or K562 cells, 24 hours; for pIC50: decrease in canonical junction mRNA; for AC50: increase in alternative junction mRNA. Put shortly: (§1)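 Housekeeping-normalized RT-qPCR of canonical and alternative junctions in lysates of A673 or K562 cells exposed 24 h to compound (11 points, 3-fold steps, max 10 uM).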
(Real-time PCR tracks product formation cycle by cycle.)

Assay [2] relates to MYB mRNA. Nature of the assay: Splicing RT-qPCR assay, MYB canonical (CJ) and alternative (AJ) junction mRNA. The settings on record: Homo sapiens, A673 or K562 cells, 24 hours; for pIC50: decrease in canonical junction mRNA; for AC50: increase in alternative junction mRNA. The format is cell-based. Put shortly: as §1
The test system of assay [3] is HTT mRNA. Nature of the assay: Gene panel canonical junction qPCR assay, HTT CJ mRNA decrease. The settings on record: Homo sapiens, canonical junction qPCR, read-out: HTT IC50 (decrease in CJ mRNA levels). The format is cell-based, human. Put shortly: (§2)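 A673 or K562 cells were treated with compound, and lysates underwent cDNA synthesis and qPCR with a CY5 5′-nuclease probe or primer spanning the canonical exon junction. ΔCt versus GAPDH, GUSB or PPIA was normalized to DMSO (2^(−ΔΔCt)), converted to percentage response and fitted four-parameter logistic for IC50.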

Assay [4] relates to Target C mRNA. Nature of the assay: Gene panel canonical junction qPCR assay, Target C CJ mRNA decrease. In kind it is cell-based. The settings on record: Homo sapiens, canonical junction qPCR, read-out: Target C IC50 (decrease in CJ mRNA levels). Put shortly:
as §2

As for `COc1cc2c(N3CCNCC3)ccc(C(=O)Nc3cc(F)c4nc(C)cn4c3)c2nn1` [Compound 183, N-{8-fluoro-2-methylimidazo[1,2-a]pyridin-6-yl}-3-methoxy-5-(piperazin-1-yl)cinnoline-8-carboxamide], the pIC50 is 5.00 to 6.00 in assay [1], more than 7.00 in assay [2], 5.00 to 6.00 in assay [3] and less than 5.00 in assay [4]. Also, the AC50 in assay [1] was 1 to 10 µM; in assay [2], less than 0.1 µM.
Consider `Cc1cn2cc(NC(=O)c3ccc(N4C[C@@H](C)N[C@@H](C)C4)c4nccnc34)cc(F)c2n1` [Compound 186, 8-(3,5-dimethylpiperazin-1-yl)-N-{8-fluoro-2-methylimidazo[1,2-a]pyridin-6-yl}quinoxaline-5-carboxamide], for which the pIC50 in assay [1] was 5.00 to 6.00; in assay [2], more than 7.00; in assay [3] it was 5.00 to 6.00; in assay [4], less than 5.00. Moreover, the AC50 in assay [1] is 1 to 10 µM; in assay [2] it was less than 0.1 µM.
With `Cc1cn2cc(NC(=O)c3ccc(N4CCN[C@@H](C)C4)c4nccnc34)cc(F)c2n1` [Compound 187, N-{8-fluoro-2-methylimidazo[1,2-a]pyridin-6-yl}-8-(3-methylpiperazin-1-yl) quinoxaline-5-carboxamide], the pIC50 in assay [1] was 5.00 to 6.00; in assay [2] it was more than 7.00; in assay [3], 5.00 to 6.00; in assay [4], less than 5.00. Further, the AC50 in assay [1] is 1 to 10 µM; in assay [2], less than 0.1 µM.
`Cc1cn2cc(NC(=O)c3ccc(N4CCC5(CCN5)CC4)c4nccnc34)cc(F)c2n1` [Compound 189, 8-{1,7-diazaspiro[3.5]nonan-7-yl}-N-{8-fluoro-2-methylimidazo[1,2-a]pyridin-6-yl}quinoxaline-5-carboxamide]: the pIC50 in assay [1] was 6.00 to 7.00; in assay [2] it was more than 7.00; in assay [3], 6.00 to 7.00; in assay [4], 5.00 to 6.00. In addition, the AC50 in assay [1] and in assay [2] was 0.1 to 1 µM each time.
As to `CNC1CCN(c2ccc(C(=O)Nc3cc(F)c4nc(C)cn4c3)c3nccnc23)C1` (centres unmarked) [Compound 190, N-{8-fluoro-2-methylimidazo[1,2-a]pyridin-6-yl}-8-[3-(methylamino)pyrrolidin-1-yl]quinoxaline-5-carboxamide], the pIC50 is 5.00 to 6.00 in assay [1], 6.00 to 7.00 in assay [2], 5.00 to 6.00 in assay [3] and 5.00 to 6.00 in assay [4]. Further, the AC50 in assay [1] was 1 to 10 µM; in assay [2], less than 0.1 µM.
For the molecule `CCNC1CCN(c2ccc(C(=O)Nc3cc(F)c4nc(C)cn4c3)c3nccnc23)CC1` [Compound 191, 8-[4-(ethylamino)piperidin-1-yl]-N-{8-fluoro-2-methylimidazo[1,2-a]pyridin-6-yl}quinoxaline-5-carboxamide], the pIC50 in assay [1] was 6.00 to 7.00; in assay [2], more than 7.00; in assay [3] it was 6.00 to 7.00; in assay [4] it was less than 5.00. Further, the AC50 in assay [1] and in assay [2] was 0.1 to 1 µM each time.
For the molecule `CNCC1CCN(c2ccc(C(=O)Nc3cc(F)c4nc(C)cn4c3)c3nccnc23)CC1` [Compound 192, N-{8-fluoro-2-methylimidazo[1,2-a]pyridin-6-yl}-8-{4-[(methylamino)methyl]piperidin-1-yl}quinoxaline-5-carboxamide trifluoroacetate], the pIC50 in assay [1], in assay [2], in assay [3] and in assay [4] was 5.00 to 6.00 each time. Besides, the AC50 in assay [1] and in assay [2] was 1 to 10 µM throughout.
For the molecule `CNC1CCN(c2ccc(C(=O)Nc3cc(F)c4nc(C)cn4c3)c3nc(C)ccc23)C1` (centres unmarked) [Compound 196, N-{8-fluoro-2-methylimidazo[1,2-a]pyridin-6-yl}-2-methyl-5-[3-(methylamino)pyrrolidin-1-yl]quinoline-8-carboxamide 2,2,2-trifluoroacetate], the pIC50 in assay [1] is 5.00 to 6.00; in assay [2], 6.00 to 7.00; in assay [3], 5.00 to 6.00; in assay [4], 5.00 to 6.00. Moreover, the results for the AC50 in assay [1] and in assay [2] were 1 to 10 µM and 0.1 to 1 µM, respectively.
As for `Cc1cnc2c(N3CCNCC3)ccc(C(=O)Nc3cc(F)c4nc(C)cn4c3)c2n1` [Compound 197, N-{8-fluoro-2-methylimidazo[1,2-a]pyridin-6-yl}-3-methyl-8-(piperazin-1-yl)quinoxaline-5-carboxamide; trifluoroacetic acid], the pIC50 was 5.00 to 6.00 in assay [1], 6.00 to 7.00 in assay [2], 5.00 to 6.00 in assay [3] and less than 5.00 in assay [4]. Moreover, the AC50 fell in the range of 1 to 10 µM in assay [1] and 0.1 to 1 µM in assay [2].
As for `COCCOc1cc2c(N3CCNCC3)ccc(C(=O)Nc3cc(F)c4nc(C)cn4c3)c2nn1` [Compound 199, N-{8-fluoro-2-methylimidazo[1,2-a]pyridin-6-yl}-3-(2-methoxyethoxy)-5-(piperazin-1-yl)cinnoline-8-carboxamide], the pIC50 was less than 5.00 in assay [1], 6.00 to 7.00 in assay [2], less than 5.00 in assay [3] and less than 5.00 in assay [4]. Besides, the AC50 in assay [1] is more than 10 µM; in assay [2], less than 0.1 µM.
Consider `Cc1cnc2c(N3CCC(N(C)C)CC3)ccc(C(=O)Nc3cc(F)c4nc(C)cn4c3)c2n1` [Compound 200, 8-[4-(dimethylamino)piperidin-1-yl]-N-{8-fluoro-2-methylimidazo[1,2-a]pyridin-6-yl}-3-methylquinoxaline-5-carboxamide], for which the pIC50 in assay [1] was 6.00 to 7.00; in assay [2], more than 7.00; in assay [3], 6.00 to 7.00; in assay [4] it was 6.00 to 7.00. Moreover, the values for the AC50 in assay [1] and in assay [2] were 0.1 to 1 µM and less than 0.1 µM, respectively.
For the molecule `CNC1CCN(c2ccc(C(=O)Nc3cc(F)c4nc(C)cn4c3)c3nc(OC)cnc23)C1` (centres unmarked) [Compound 202, N-{8-fluoro-2-methylimidazo[1,2-a]pyridin-6-yl}-3-methoxy-8-[3-(methylamino)pyrrolidin-1-yl]quinoxaline-5-carboxamide; bis(trifluoroacetic acid)], the pIC50 in assay [1], in assay [3] and in assay [4] was less than 5.00 throughout. The AC50 in assay [1] was more than 10 µM; in assay [2] it was 0.1 to 1 µM.
On to `CN[C@@H]1CCN(c2ccc(C(=O)Nc3cc(F)c4nc(C)cn4c3)c3nc(OC)cnc23)C1` [Compound 204, (R)—N-{8-fluoro-2-methylimidazo[1,2-a]pyridin-6-yl}-3-methoxy-8-[3-(methylamino)pyrrolidin-1-yl]quinoxaline-5-carboxamide; trifluoroacetic acid], for which the pIC50 in assay [1] was less than 5.00; in assay [2], 5.00 to 6.00; in assay [3], less than 5.00; in assay [4], less than 5.00. For the same molecule, the AC50 in assay [1] and in assay [2] was more than 10 µM throughout.
As for `COc1cnc2c(N3C[C@@H](C)N[C@@H](C)C3)ccc(C(=O)Nc3cc(F)c4nc(C)cn4c3)c2n1` [Compound 205, 8-[(3R,5S)-3,5-dimethylpiperazin-1-yl]-N-{8-fluoro-2-methylimidazo[1,2-a]pyridin-6-yl}-3-methoxyquinoxaline-5-carboxamide; trifluoroacetic acid], the pIC50 in assay [1] was 6.00 to 7.00; in assay [2], more than 7.00; in assay [3], 6.00 to 7.00; in assay [4], 6.00 to 7.00. The AC50 was 0.1 to 1 µM in assay [1] and less than 0.1 µM in assay [2].
For `COc1cnc2c(N3CCC(N(C)C)CC3)ccc(C(=O)Nc3cc(F)c4nc(C)cn4c3)c2n1` [Compound 206, 8-[4-(dimethylamino)piperidin-1-yl]-N-{8-fluoro-2-methylimidazo[1,2-a]pyridin-6-yl}-3-methoxyquinoxaline-5-carboxamide; trifluoroacetic acid], the pIC50 in assay [1], in assay [2], in assay [3] and in assay [4] was 6.00 to 7.00 each time. In addition, the AC50 in assay [1] and in assay [2] was 0.1 to 1 µM throughout.
For the molecule `COc1cnc2c(N3CCNCC3)ccc(C(=O)Nc3cc(F)c4nc(C)cn4c3)c2n1` [Compound 207, N-{8-fluoro-2-methylimidazo[1,2-a]pyridin-6-yl}-3-methoxy-8-(piperazin-1-yl)quinoxaline-5-carboxamide; bis(trifluoroacetic acid)], the pIC50 in assay [1] is 6.00 to 7.00; in assay [2], more than 7.00; in assay [3] it was 6.00 to 7.00; in assay [4] it was less than 5.00. Also, the values for the concentration at half-maximal activity (AC50) in assay [1] and in assay [2] were 1 to 10 µM and less than 0.1 µM, respectively.
Regarding `Cc1cnc2c(C(=O)Nc3cc(F)c4nc(C)cn4c3)ccc(N3CCC(N(C)C)CC3)c2n1` [Compound 208, 8-[4-(dimethylamino)piperidin-1-yl]-N-{8-fluoro-2-methylimidazo[1,2-a]pyridin-6-yl}-2-methylquinoxaline-5-carboxamide; bis(trifluoroacetic acid)], the pIC50 in assay [1] was 5.00 to 6.00; in assay [2], more than 7.00; in assay [3], 5.00 to 6.00; in assay [4], less than 5.00. Further, the figures for the AC50 in assay [1] and in assay [2] were 1 to 10 µM and less than 0.1 µM, respectively.
